These results are taken from ChEMBL document CHEMBL1201862, “PubChem BioAssay data set” (2004).

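The compound was tested at five concentrations on cells cultured in 96-well plates, with a 48-hour exposure period. At the GI50, growth is halved.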 Calls of active or inactive are those of the source. Cut-off read from the data, not from the text of the source: active = GI50 up to about 1.1 µM and inactive = higher.

Test systems include SF-268; KM12; SNB-19; BT-549; OVCAR-5; PC-3; HCC 2998; TK-10; K562; LOX IMVI; NCI/ADR-RES; EKVX; ACHN; IGROV-1; CCRF-CEM; Malme-3M; HL-60; NCI-H522; SF-539.
Common to all, as to experiment: inhibition of tumour cell growth, NCI panel, 48 h

With `Cc1ccsc1/C=N/Nc1nc2ccccc2s1`, the GI50 in the assay with SF-268 is 21.4 µM (inactive); in the assay with KM12, 24.2 µM (inactive); with SNB-19, 12.8 µM (inactive); in the assay with BT-549, 71.3 µM (inactive); with OVCAR-5, 40.9 µM (inactive); with PC-3, 14.3 µM (inactive). The GI50 was 63.2 µM (inactive) with HCC 2998; 13.9 µM (inactive) with TK-10; 14.7 µM (inactive) with K562; 23.9 µM (inactive) in the assay on LOX IMVI; 21.4 µM (inactive) in the assay with NCI/ADR-RES; 19.3 µM (inactive) in the assay with EKVX. Further, the GI50 with ACHN is 14 µM (inactive); in the assay with IGROV-1, 11 µM (inactive); in the assay with CCRF-CEM, 15.4 µM (inactive).
Consider `Cc1ccc(S(=O)(=O)n2c3c(c4ccccc42)CCN2C(=O)C(S(=O)(=O)c4ccccc4)=CCC32)cc1` (centres undefined), for which the GI50 in the assay with SF-268 was 0.238 µM (active); with Malme-3M it was 0.213 µM (active); in the assay with KM12 it was 0.194 µM (active); with SNB-19, 0.652 µM (active); in the assay on OVCAR-5 it was 0.23 µM (active); in the assay on PC-3 it was 0.239 µM (active). Further, the GI50 in the assay with HCC 2998 was 0.212 µM (active); in the assay with HL-60, 0.233 µM (active); in the assay with TK-10, 0.0646 µM (active); with K562, 0.202 µM (active); in the assay with LOX IMVI, 0.185 µM (active); in the assay with NCI/ADR-RES, 0.218 µM (active). Also, the GI50 is 0.448 µM (active) with EKVX; 0.193 µM (active) with ACHN; 0.184 µM (active) in the assay on IGROV-1; 0.228 µM (active) in the assay with CCRF-CEM; 0.259 µM (active) in the assay on NCI-H522; 0.191 µM (active) in the assay with SF-539.
With `CCOC(=O)N/N=C(/OCC)c1ccccc1`, the GI50 with SF-268, in the assay with Malme-3M, in the assay on KM12, with SNB-19, in the assay with BT-549 and in the assay on OVCAR-5 was > 100 µM (inactive) throughout. Besides, the GI50 in the assay on HCC 2998, in the assay on HL-60, with TK-10, in the assay with K562, with LOX IMVI and with NCI/ADR-RES was > 100 µM (inactive) in each case. Moreover, the GI50 in the assay with EKVX, in the assay with ACHN, with IGROV-1, with CCRF-CEM, with NCI-H522 and in the assay on SF-539 was > 100 µM (inactive) each time.
Regarding `CN(C)C(=S)N1C(=S)N(c2ccccc2)C(=N/c2ccccc2)/C1=N\c1ccccc1`, the GI50 in the assay on SF-268, in the assay with Malme-3M, with KM12, in the assay on SNB-19, in the assay on OVCAR-5 and with PC-3 was > 100 µM (inactive) each time. The GI50 with HCC 2998, in the assay on HL-60, in the assay with TK-10, in the assay with K562, in the assay with LOX IMVI and in the assay with NCI/ADR-RES was > 100 µM (inactive) in each case. Further, the GI50 was > 100 µM (inactive) in the assay with EKVX; > 100 µM (inactive) in the assay with ACHN; > 100 µM (inactive) with IGROV-1; > 100 µM (inactive) with CCRF-CEM; 6.82 µM (inactive) with NCI-H522; > 100 µM (inactive) in the assay with SF-539.
As for `C=CCOC(=O)N1c2ccc(O)cc2[C@@]23O[C@@]24[C@@H]1C#C/C=C\C#C[C@]3(O)C(OC)(OC)C[C@@H]4C`, the GI50 is 36.5 µM (inactive) with SF-268; 26.8 µM (inactive) in the assay on Malme-3M; 24.9 µM (inactive) in the assay with KM12; 58.2 µM (inactive) in the assay with SNB-19; 75.9 µM (inactive) in the assay on OVCAR-5; 24 µM (inactive) in the assay with PC-3. Further, the GI50 in the assay on HCC 2998 was 63.1 µM (inactive); in the assay on HL-60, 32.8 µM (inactive); with TK-10, 29.9 µM (inactive); with K562 it was 34.8 µM (inactive); with NCI/ADR-RES, 32.3 µM (inactive); in the assay on EKVX, 53.2 µM (inactive). The GI50 in the assay on ACHN was 17.7 µM (inactive); in the assay on IGROV-1, 25.8 µM (inactive); in the assay on CCRF-CEM it was 23.6 µM (inactive); in the assay with NCI-H522, 31.3 µM (inactive); in the assay on SF-539, 21.6 µM (inactive).
As for `Clc1ccc(CNc2nc(Cl)c3nc[nH]c3n2)cc1Cl`, the GI50 with SF-268 is 25.4 µM (inactive); in the assay with Malme-3M, 26.4 µM (inactive); in the assay on KM12, 29.2 µM (inactive); in the assay with SNB-19, 34 µM (inactive); in the assay on BT-549 it was 24.2 µM (inactive); in the assay with OVCAR-5 it was > 100 µM (inactive). The GI50 was 21.6 µM (inactive) with PC-3; 19.8 µM (inactive) in the assay on HCC 2998; 12.2 µM (inactive) with TK-10; 20.3 µM (inactive) in the assay on K562; 15.8 µM (inactive) in the assay with NCI/ADR-RES; 25.2 µM (inactive) with EKVX. The GI50 was 31.2 µM (inactive) in the assay on ACHN; 42.7 µM (inactive) in the assay with IGROV-1; 35.5 µM (inactive) with CCRF-CEM; 11.3 µM (inactive) with NCI-H522; 13.5 µM (inactive) in the assay on SF-539.
In the case of `COC(=O)C(CNC(=O)/C=C/c1ccc(OC(C)=O)c(OC(C)=O)c1)NC(=O)/C=C/c1ccc(OC(C)=O)c(OC(C)=O)c1` (centres undefined), the GI50 in the assay on SF-268 was > 100 µM (inactive); in the assay on Malme-3M, > 100 µM (inactive); with KM12, > 100 µM (inactive); in the assay on SNB-19, 93.3 µM (inactive); in the assay on BT-549, > 100 µM (inactive); in the assay with OVCAR-5, > 100 µM (inactive). For the same compound, the GI50 in the assay with PC-3 was > 100 µM (inactive); in the assay with HCC 2998 it was > 100 µM (inactive); with TK-10 it was > 100 µM (inactive); with K562 it was 64.1 µM (inactive); with LOX IMVI, > 100 µM (inactive); with EKVX, > 100 µM (inactive). For the same compound, the GI50 is > 100 µM (inactive) in the assay on ACHN; > 100 µM (inactive) with IGROV-1; 42.4 µM (inactive) in the assay with CCRF-CEM; 32.1 µM (inactive) in the assay on NCI-H522; > 100 µM (inactive) in the assay on SF-539.
Regarding `N#Cc1c(-c2ccccc2)[nH]c(=O)n(C2OC(CO)C(O)C(O)C2O)c1=O` (centres undefined), the GI50 with SF-268, in the assay with KM12, in the assay on SNB-19, in the assay with BT-549, with OVCAR-5 and in the assay on PC-3 was > 100 µM (inactive) in each case. The GI50 with HCC 2998, in the assay on TK-10, in the assay with K562, in the assay with NCI/ADR-RES, in the assay on EKVX and in the assay with ACHN was > 100 µM (inactive) each time. Besides, the GI50 in the assay with CCRF-CEM and with SF-539 was > 100 µM (inactive) each time.
As for `CCCCCCCCCCCCCCCCOCC(COP(=O)([O-])OCC[n+]1ccc(N(C)C)cc1)OCC` (centres undefined), the GI50 is 10.8 µM (inactive) with SF-268; 18.5 µM (inactive) with Malme-3M; 0.0527 µM (active) in the assay on KM12; 2.8 µM (inactive) with SNB-19; 7.74 µM (inactive) in the assay with BT-549; 13.7 µM (inactive) with HCC 2998. Besides, the GI50 in the assay with HL-60 is 1.52 µM (inactive); in the assay on TK-10, 14.9 µM (inactive); in the assay on K562 it was 19.3 µM (inactive); with LOX IMVI, 12.6 µM (inactive); with ACHN, 16.8 µM (inactive); in the assay with IGROV-1, 16.9 µM (inactive). Also, the values for the GI50 in the assay with CCRF-CEM, with NCI-H522 and in the assay with SF-539 were 10.5 µM (inactive), 12.8 µM (inactive) and 13.5 µM (inactive), respectively.
In the case of `CCCCCCCCC/C=C1/CC(CO)(COC(=O)C2CCCCC2)OC1=O` (centres undefined), the GI50 in the assay with SF-268 was > 100 µM (inactive); in the assay with Malme-3M it was 43.3 µM (inactive); in the assay on KM12, > 100 µM (inactive); in the assay on SNB-19, > 100 µM (inactive); in the assay on BT-549 it was > 100 µM (inactive); in the assay on OVCAR-5 it was > 100 µM (inactive). For the same compound, the GI50 in the assay on PC-3 was > 100 µM (inactive); in the assay with HCC 2998, > 100 µM (inactive); with TK-10 it was > 100 µM (inactive); in the assay on K562 it was 67.5 µM (inactive); with LOX IMVI it was 72.4 µM (inactive); in the assay on NCI/ADR-RES it was > 100 µM (inactive). The GI50 is > 100 µM (inactive) in the assay with EKVX; > 100 µM (inactive) in the assay with ACHN; > 100 µM (inactive) in the assay on IGROV-1; > 100 µM (inactive) with CCRF-CEM; 63.1 µM (inactive) in the assay on NCI-H522.
Consider `COc1ccc(/C=C2\CN(C)CC3C2=NN(c2ccccc2)C3c2ccc(OC)cc2)cc1` (centres undefined), for which the GI50 was > 100 µM (inactive) with SF-268; 41.7 µM (inactive) in the assay on Malme-3M; > 100 µM (inactive) in the assay with KM12; 27.2 µM (inactive) in the assay with SNB-19; > 100 µM (inactive) in the assay with BT-549; > 100 µM (inactive) in the assay with OVCAR-5. For the same compound, the GI50 is > 100 µM (inactive) in the assay on HCC 2998; 26.1 µM (inactive) with TK-10; > 100 µM (inactive) with K562; > 100 µM (inactive) in the assay with LOX IMVI; > 100 µM (inactive) in the assay with NCI/ADR-RES; > 100 µM (inactive) with EKVX. Moreover, the GI50 in the assay with ACHN was 77.1 µM (inactive); in the assay on IGROV-1 it was > 100 µM (inactive); in the assay with CCRF-CEM, > 100 µM (inactive); in the assay with NCI-H522 it was 72.9 µM (inactive).
In the case of `O=C1NCN(c2ccccc2)C12CCN(CC1COc3ccccc3O1)CC2` (centres undefined) [SPIROXATRINE], the GI50 in the assay with SF-268 was 65.2 µM (inactive); in the assay on Malme-3M, 40.6 µM (inactive); in the assay with SNB-19 it was 30.3 µM (inactive); in the assay with OVCAR-5 it was > 100 µM (inactive); with PC-3, 51.9 µM (inactive); with HCC 2998, > 100 µM (inactive). The GI50 in the assay on HL-60 is > 100 µM (inactive); in the assay on TK-10, 46.9 µM (inactive); in the assay on K562, > 100 µM (inactive); with LOX IMVI, > 100 µM (inactive); with NCI/ADR-RES, 47.5 µM (inactive); in the assay with EKVX, 43.5 µM (inactive). In addition, the GI50 was 84.1 µM (inactive) with ACHN; 27.5 µM (inactive) in the assay on IGROV-1; > 100 µM (inactive) in the assay with CCRF-CEM; 91.8 µM (inactive) in the assay on NCI-H522; 62.5 µM (inactive) with SF-539.
